Test results published in US20250275540A1, “USE OF PROTOPORPHYRINOGEN OXIDASE” (BEIJING DABEINONG BIOTECHNOLOGY CO., LTD., priority 2022, published 2025).

System: transgenic Arabidopsis thaliana T1 plants
Assay: Detection of the herbicide tolerance of the transgenic Arabidopsis thaliana plants
Format: in vivo
Details: for The grade of pesticide damage/plant: 0 / The grade of pesticide damage/plant: 1 / The grade of pesticide damage/plant: 2 / The grade of pesticide damage/plant: 3: 7 DAT
Description: The transformed Arabidopsis thaliana T1 plants were initially selected using glufosinate herbicide. The Arabidopsis thaliana T1 plants (PPOA-01) into which the PPOA-01 nucleotide sequence was introduced, the Arabidopsis thaliana T1 plants (PPOB-01) into which the PPOB-01 nucleotide sequence was introduced, the Arabidopsis thaliana T1 plants (PPOC-01) into which the PPOC-01 nucleotide sequence was introduced, the Arabidopsis thaliana T1 plants (PPOD-01) into which the PPOD-01 nucleotide sequence was introduced, the Arabidopsis thaliana T1 plants (PPOE-01) into which the PPOE-01 nucleotide sequence was introduced, the Arabidopsis thaliana T1 plants (PPOF-01) into which the PPOF-01 nucleotide sequence was introduced, the Arabidopsis thaliana T1 plants (PPO-AP-01) into which the PPO-AP-01 nucleotide sequence was introduced, and the Arabidopsis thaliana T1 plants (control vector) into which the control vector was introduced, the wild-type Arabidopsis thaliana plants (CK) (with 24 plants being included in each genotype) (18 days after sowing) were sprayed with saflufenacil at three concentrations (25 g ai/ha (one-fold field concentration, 1×), 100 g ai/ha (four-fold field concentration, 4×), and 0 g ai/ha (water, 0×)), oxyfluorfen at three concentrations (180 g ai/ha (one-fold field concentration, 1×), 720 g ai/ha (four-fold field concentration, 4×), and 0 g ai/ha (water, 0×)), and flumioxazin at three concentrations (60 g ai/ha (one-fold field concentration, 1×), 240 g ai/ha (four-fold field concentration, 4×), and 0 g ai/ha (water, 0×) to determine the tolerance of Arabidopsis thaliana to the herbicides. After 7 days of spraying (7 DAT), the damage level of each plant caused by the herbicide was evaluated according to the average of the damage levels (%) of plants (the average of the damage levels (%) of plants=the injured leaf area/the total leaf area×100%), i.e., the grade of pesticide damage: grade 0 means that the growth status of plants is essentially consistent with those sprayed with the blank solvent (water); grade 1 means that the average of the damage levels of plants is less than 10%; grade 2 means that the average of the damage levels of plants is greater than 10%; and grade 3 means that the average of the damage levels of plants is 100%. The plants having a growth status falling within grades 0 and 1 are classified as highly resistant plants; those having a growth status falling within grade 2 are classified as poorly resistant plants; and those having a growth status falling within grade 3 are classified as non-resistant plants.

[1] = genotype Control vector, 60 g ai/ha
[2] = genotype Control vector, 240 g ai/ha
[3] = genotype PPO-AP-01, 240 g ai/ha

SMILES: C#CCN1C(=O)COc2cc(F)c(N3C(=O)C4=C(CCCC4)C3=O)cc21 [flumioxazin, 2-[7-fluoro-3,4-dihydro-3-oxo-4-(2-propynyl)-2H-1,4-benzoxazin-6-yl]-4,5,6,7-tetrahydro-1H-isoindole-1,3(2H)-dione]
- effective dose distinguishing sensitive plants from plants having an average level of resistance (Arabidopsis thaliana): 60 g ai/ha
- The grade of pesticide damage/plant: 0 (genotype CK, 60 g ai/ha): 0 plant
- The grade of pesticide damage/plant: 1 (genotype CK, 60 g ai/ha): 0 plant
- The grade of pesticide damage/plant: 2 (genotype CK, 60 g ai/ha): 0 plant
- The grade of pesticide damage/plant: 3 (genotype CK, 60 g ai/ha): 24 plant
- The grade of pesticide damage/plant: 0 (genotype CK, 240 g ai/ha): 0 plant
- The grade of pesticide damage/plant: 1 (genotype CK, 240 g ai/ha): 0 plant
- The grade of pesticide damage/plant: 2 (genotype CK, 240 g ai/ha): 0 plant
- The grade of pesticide damage/plant: 3 (genotype CK, 240 g ai/ha): 24 plant
- The grade of pesticide damage/plant: 0 [1]: 0 plant
- The grade of pesticide damage/plant: 1 [1]: 0 plant
- The grade of pesticide damage/plant: 2 [1]: 0 plant
- The grade of pesticide damage/plant: 3 [1]: 24 plant
- The grade of pesticide damage/plant: 0 [2]: 0 plant
- The grade of pesticide damage/plant: 1 [2]: 0 plant
- The grade of pesticide damage/plant: 2 [2]: 0 plant
- The grade of pesticide damage/plant: 3 [2]: 24 plant
- The grade of pesticide damage/plant: 0 (genotype PPO-AP-01, 60 g ai/ha): 0 plant
- The grade of pesticide damage/plant: 1 (genotype PPO-AP-01, 60 g ai/ha): 0 plant
- The grade of pesticide damage/plant: 2 (genotype PPO-AP-01, 60 g ai/ha): 0 plant
- The grade of pesticide damage/plant: 3 (genotype PPO-AP-01, 60 g ai/ha): 24 plant
- The grade of pesticide damage/plant: 0 [3]: 0 plant
- The grade of pesticide damage/plant: 1 [3]: 0 plant
- The grade of pesticide damage/plant: 2 [3]: 0 plant
- The grade of pesticide damage/plant: 3 [3]: 24 plant
- tolerance to the herbicide (in words) (genotype PPO-AP-01, four-fold field concentration): no tolerance
- tolerance to the herbicide (in words) (genotype PPO-AP-01, one-fold field concentration): no tolerance
- The grade of pesticide damage/plant: 0 (genotype PPOA-01, 60 g ai/ha): 24 plant
- The grade of pesticide damage/plant: 1 (genotype PPOA-01, 60 g ai/ha): 0 plant
- The grade of pesticide damage/plant: 2 (genotype PPOA-01, 60 g ai/ha): 0 plant
- The grade of pesticide damage/plant: 3 (genotype PPOA-01, 60 g ai/ha): 0 plant
- The grade of pesticide damage/plant: 0 (genotype PPOA-01, 240 g ai/ha): 18 plant
- The grade of pesticide damage/plant: 1 (genotype PPOA-01, 240 g ai/ha): 6 plant
- The grade of pesticide damage/plant: 2 (genotype PPOA-01, 240 g ai/ha): 0 plant
- The grade of pesticide damage/plant: 3 (genotype PPOA-01, 240 g ai/ha): 0 plant
- The grade of pesticide damage/plant: 0 (genotype PPOB-01, 60 g ai/ha): 24 plant
- The grade of pesticide damage/plant: 1 (genotype PPOB-01, 60 g ai/ha): 0 plant
- The grade of pesticide damage/plant: 2 (genotype PPOB-01, 60 g ai/ha): 0 plant
- The grade of pesticide damage/plant: 3 (genotype PPOB-01, 60 g ai/ha): 0 plant
- The grade of pesticide damage/plant: 0 (genotype PPOB-01, 240 g ai/ha): 18 plant
- The grade of pesticide damage/plant: 1 (genotype PPOB-01, 240 g ai/ha): 6 plant
- The grade of pesticide damage/plant: 2 (genotype PPOB-01, 240 g ai/ha): 0 plant
- The grade of pesticide damage/plant: 3 (genotype PPOB-01, 240 g ai/ha): 0 plant
- The grade of pesticide damage/plant: 0 (genotype PPOC-01, 60 g ai/ha): 24 plant
- The grade of pesticide damage/plant: 1 (genotype PPOC-01, 60 g ai/ha): 0 plant
- The grade of pesticide damage/plant: 2 (genotype PPOC-01, 60 g ai/ha): 0 plant
- The grade of pesticide damage/plant: 3 (genotype PPOC-01, 60 g ai/ha): 0 plant
- The grade of pesticide damage/plant: 0 (genotype PPOC-01, 240 g ai/ha): 24 plant
- The grade of pesticide damage/plant: 1 (genotype PPOC-01, 240 g ai/ha): 0 plant
- The grade of pesticide damage/plant: 2 (genotype PPOC-01, 240 g ai/ha): 0 plant
- The grade of pesticide damage/plant: 3 (genotype PPOC-01, 240 g ai/ha): 0 plant
- The grade of pesticide damage/plant: 0 (genotype PPOD-01, 60 g ai/ha): 24 plant
- The grade of pesticide damage/plant: 1 (genotype PPOD-01, 60 g ai/ha): 0 plant
- The grade of pesticide damage/plant: 2 (genotype PPOD-01, 60 g ai/ha): 0 plant
- The grade of pesticide damage/plant: 3 (genotype PPOD-01, 60 g ai/ha): 0 plant
- The grade of pesticide damage/plant: 0 (genotype PPOD-01, 240 g ai/ha): 24 plant
- The grade of pesticide damage/plant: 1 (genotype PPOD-01, 240 g ai/ha): 0 plant
- The grade of pesticide damage/plant: 2 (genotype PPOD-01, 240 g ai/ha): 0 plant
- The grade of pesticide damage/plant: 3 (genotype PPOD-01, 240 g ai/ha): 0 plant
- The grade of pesticide damage/plant: 0 (genotype PPOE-01, 60 g ai/ha): 22 plant
- The grade of pesticide damage/plant: 1 (genotype PPOE-01, 60 g ai/ha): 2 plant
- The grade of pesticide damage/plant: 2 (genotype PPOE-01, 60 g ai/ha): 0 plant
- The grade of pesticide damage/plant: 3 (genotype PPOE-01, 60 g ai/ha): 0 plant
- The grade of pesticide damage/plant: 0 (genotype PPOE-01, 240 g ai/ha): 23 plant
- The grade of pesticide damage/plant: 1 (genotype PPOE-01, 240 g ai/ha): 0 plant
- The grade of pesticide damage/plant: 2 (genotype PPOE-01, 240 g ai/ha): 0 plant
- The grade of pesticide damage/plant: 3 (genotype PPOE-01, 240 g ai/ha): 1 plant
- number of non-resistant plants (genotype PPOE-01, four-fold field concentration): 1 plant
- tolerance to the herbicide (in words) (genotype PPOE-01, the other plants, four-fold field concentration): high-resistant tolerance
- The grade of pesticide damage/plant: 0 (genotype PPOF-01, 60 g ai/ha): 24 plant
- The grade of pesticide damage/plant: 1 (genotype PPOF-01, 60 g ai/ha): 0 plant
- The grade of pesticide damage/plant: 2 (genotype PPOF-01, 60 g ai/ha): 0 plant
- The grade of pesticide damage/plant: 3 (genotype PPOF-01, 60 g ai/ha): 0 plant
- The grade of pesticide damage/plant: 0 (genotype PPOF-01, 240 g ai/ha): 18 plant
- The grade of pesticide damage/plant: 1 (genotype PPOF-01, 240 g ai/ha): 6 plant
- The grade of pesticide damage/plant: 2 (genotype PPOF-01, 240 g ai/ha): 0 plant
- The grade of pesticide damage/plant: 3 (genotype PPOF-01, 240 g ai/ha): 0 plant
- tolerance to the herbicide (in words) (genotypes PPOA-01 to PPOD-01 and PPOF-01, four-fold field concentration): high-resistant tolerance
- tolerance to the herbicide (in words) (genotypes PPOA-01 to PPOF-01, one-fold field concentration): high-resistant tolerance
